In ChEMBL document CHEMBL5291721, “A preclinical secondary pharmacology resource illuminates target-adverse drug reaction associations of marketed drugs” (Nat Commun, 2023):

Assays:
Cannabinoid receptor 1 = Cannabinoid receptor 1 (Homo sapiens, UniProt P21554); type: functional, cell-based
Progesterone receptor = target: T1, Progesterone receptor (Homo sapiens, UniProt P06401); type: functional
T1 sequence (P06401 whole entry): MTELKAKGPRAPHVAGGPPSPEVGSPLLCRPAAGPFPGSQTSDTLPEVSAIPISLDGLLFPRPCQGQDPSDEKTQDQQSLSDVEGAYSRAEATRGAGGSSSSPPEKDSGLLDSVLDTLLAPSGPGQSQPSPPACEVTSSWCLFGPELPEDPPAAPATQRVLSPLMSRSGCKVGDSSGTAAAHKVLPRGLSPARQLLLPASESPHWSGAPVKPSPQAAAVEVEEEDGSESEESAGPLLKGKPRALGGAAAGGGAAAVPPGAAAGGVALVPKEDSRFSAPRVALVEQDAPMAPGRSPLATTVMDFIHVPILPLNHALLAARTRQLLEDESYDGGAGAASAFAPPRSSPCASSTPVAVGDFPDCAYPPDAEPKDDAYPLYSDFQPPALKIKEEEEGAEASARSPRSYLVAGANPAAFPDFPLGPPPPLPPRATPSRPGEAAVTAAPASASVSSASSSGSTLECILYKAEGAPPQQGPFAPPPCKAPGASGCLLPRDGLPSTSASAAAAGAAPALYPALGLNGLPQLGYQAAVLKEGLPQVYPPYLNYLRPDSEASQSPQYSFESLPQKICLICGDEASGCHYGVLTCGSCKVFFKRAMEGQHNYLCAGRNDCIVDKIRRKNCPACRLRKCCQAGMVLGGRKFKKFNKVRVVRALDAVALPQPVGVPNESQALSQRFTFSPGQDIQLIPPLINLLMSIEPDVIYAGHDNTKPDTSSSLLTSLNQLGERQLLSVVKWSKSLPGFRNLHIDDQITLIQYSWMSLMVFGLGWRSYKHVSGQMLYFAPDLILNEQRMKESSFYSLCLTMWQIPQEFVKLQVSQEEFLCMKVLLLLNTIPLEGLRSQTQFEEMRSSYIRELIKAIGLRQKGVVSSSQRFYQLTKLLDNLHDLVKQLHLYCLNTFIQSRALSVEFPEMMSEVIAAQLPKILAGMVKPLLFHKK

[1] = target: T2, 5-hydroxytryptamine receptor 3A (Homo sapiens, UniProt P46098); type: functional
T2 sequence (P46098 whole entry): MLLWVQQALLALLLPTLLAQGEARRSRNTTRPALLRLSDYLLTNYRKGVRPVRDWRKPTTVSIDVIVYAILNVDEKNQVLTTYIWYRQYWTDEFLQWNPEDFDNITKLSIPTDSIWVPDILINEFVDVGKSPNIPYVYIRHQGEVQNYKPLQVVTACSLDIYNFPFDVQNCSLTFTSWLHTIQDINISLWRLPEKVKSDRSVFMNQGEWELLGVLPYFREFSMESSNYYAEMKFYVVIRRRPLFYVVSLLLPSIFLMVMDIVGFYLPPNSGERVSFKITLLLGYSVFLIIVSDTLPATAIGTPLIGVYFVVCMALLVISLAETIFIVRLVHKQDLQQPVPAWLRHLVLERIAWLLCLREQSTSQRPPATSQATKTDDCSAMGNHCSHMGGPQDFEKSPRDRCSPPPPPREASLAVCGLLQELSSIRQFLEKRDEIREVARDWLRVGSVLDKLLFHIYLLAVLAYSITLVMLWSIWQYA

Mu-type opioid receptor = Mu-type opioid receptor (Homo sapiens, UniProt P35372)
[2] = target: T3, Neuropeptide Y receptor type 1 (Homo sapiens, UniProt P25929)
T3 sequence (P25929 whole entry): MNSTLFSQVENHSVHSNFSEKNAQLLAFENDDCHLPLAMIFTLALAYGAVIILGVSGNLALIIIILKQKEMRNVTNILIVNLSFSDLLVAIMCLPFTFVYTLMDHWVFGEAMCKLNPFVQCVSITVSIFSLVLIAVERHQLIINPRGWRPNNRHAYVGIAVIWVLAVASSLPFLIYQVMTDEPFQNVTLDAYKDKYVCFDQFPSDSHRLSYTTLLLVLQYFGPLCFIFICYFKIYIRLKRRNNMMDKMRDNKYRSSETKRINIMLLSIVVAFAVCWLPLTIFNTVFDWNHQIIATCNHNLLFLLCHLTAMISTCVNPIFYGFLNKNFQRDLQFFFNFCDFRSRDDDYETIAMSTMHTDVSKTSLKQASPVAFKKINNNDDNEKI

[3] = target: Glutamate receptor ionotropic, NMDA 1 (Rattus norvegicus, UniProt P35439)
Motilin receptor = Motilin receptor (Homo sapiens, UniProt O43193)
[4] = target: Beta-1 adrenergic receptor (Homo sapiens, UniProt P08588); type: functional
Adenosine receptor A3 = target: T4, Adenosine receptor A3 (Homo sapiens, UniProt P0DMS8)
T4 sequence (P0DMS8 whole entry): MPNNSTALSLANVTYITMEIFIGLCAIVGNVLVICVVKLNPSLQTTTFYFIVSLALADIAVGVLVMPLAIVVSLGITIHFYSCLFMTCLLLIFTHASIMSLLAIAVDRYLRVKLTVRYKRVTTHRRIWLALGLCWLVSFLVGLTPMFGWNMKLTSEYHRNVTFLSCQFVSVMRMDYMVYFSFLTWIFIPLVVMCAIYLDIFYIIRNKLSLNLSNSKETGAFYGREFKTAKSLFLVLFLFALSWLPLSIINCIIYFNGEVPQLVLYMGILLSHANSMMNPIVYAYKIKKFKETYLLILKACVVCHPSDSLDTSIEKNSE

Melanocortin receptor 3 = Melanocortin receptor 3 (Homo sapiens, UniProt P41968)
B2 bradykinin receptor = target: T5, B2 bradykinin receptor (Homo sapiens, UniProt P30411)
T5 sequence (P30411 whole entry): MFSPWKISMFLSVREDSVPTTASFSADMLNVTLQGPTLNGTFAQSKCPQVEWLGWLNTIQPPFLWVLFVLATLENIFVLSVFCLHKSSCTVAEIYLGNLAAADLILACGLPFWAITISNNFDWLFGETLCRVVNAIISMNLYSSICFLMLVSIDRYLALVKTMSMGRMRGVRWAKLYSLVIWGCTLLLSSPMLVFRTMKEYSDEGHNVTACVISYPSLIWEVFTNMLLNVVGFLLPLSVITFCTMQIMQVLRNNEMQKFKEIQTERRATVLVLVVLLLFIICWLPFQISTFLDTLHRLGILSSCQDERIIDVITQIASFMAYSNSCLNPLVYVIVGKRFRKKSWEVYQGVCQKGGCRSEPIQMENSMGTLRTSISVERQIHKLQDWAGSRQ
Further: assay procedure not described here.

Motilin receptor, sequence (O43193 whole entry): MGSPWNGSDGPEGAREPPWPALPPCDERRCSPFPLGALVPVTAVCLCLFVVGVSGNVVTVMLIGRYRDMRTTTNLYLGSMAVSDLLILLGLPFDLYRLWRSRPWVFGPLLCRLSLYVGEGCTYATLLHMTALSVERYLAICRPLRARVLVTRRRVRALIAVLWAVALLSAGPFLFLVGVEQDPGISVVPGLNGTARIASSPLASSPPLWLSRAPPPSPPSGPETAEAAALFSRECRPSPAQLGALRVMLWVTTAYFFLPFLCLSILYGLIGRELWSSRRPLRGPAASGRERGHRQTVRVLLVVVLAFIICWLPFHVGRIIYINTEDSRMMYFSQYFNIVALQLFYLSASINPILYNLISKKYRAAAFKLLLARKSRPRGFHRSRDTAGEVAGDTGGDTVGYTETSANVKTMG
Mu-type opioid receptor, sequence (P35372 whole entry): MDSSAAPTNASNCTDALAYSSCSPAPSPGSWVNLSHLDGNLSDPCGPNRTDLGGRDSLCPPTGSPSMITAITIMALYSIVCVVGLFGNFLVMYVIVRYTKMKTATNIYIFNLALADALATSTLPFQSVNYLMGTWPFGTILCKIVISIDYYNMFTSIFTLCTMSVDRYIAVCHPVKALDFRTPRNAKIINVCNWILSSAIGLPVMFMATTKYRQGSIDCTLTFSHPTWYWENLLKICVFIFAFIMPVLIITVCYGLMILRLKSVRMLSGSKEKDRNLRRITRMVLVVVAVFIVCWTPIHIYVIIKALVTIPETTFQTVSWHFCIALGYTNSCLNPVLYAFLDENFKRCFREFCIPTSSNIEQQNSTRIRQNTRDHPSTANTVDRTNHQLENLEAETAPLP
Melanocortin receptor 3, sequence (P41968 whole entry): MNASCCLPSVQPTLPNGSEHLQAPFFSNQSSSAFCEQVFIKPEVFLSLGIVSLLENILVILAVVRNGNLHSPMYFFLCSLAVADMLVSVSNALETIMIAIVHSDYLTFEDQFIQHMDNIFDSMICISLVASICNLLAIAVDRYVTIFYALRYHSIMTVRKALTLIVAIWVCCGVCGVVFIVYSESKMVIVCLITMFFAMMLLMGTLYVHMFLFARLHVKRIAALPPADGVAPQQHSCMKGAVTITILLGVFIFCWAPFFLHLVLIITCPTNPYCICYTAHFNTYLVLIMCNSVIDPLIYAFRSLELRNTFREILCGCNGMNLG
Beta-1 adrenergic receptor, sequence (P08588 whole entry): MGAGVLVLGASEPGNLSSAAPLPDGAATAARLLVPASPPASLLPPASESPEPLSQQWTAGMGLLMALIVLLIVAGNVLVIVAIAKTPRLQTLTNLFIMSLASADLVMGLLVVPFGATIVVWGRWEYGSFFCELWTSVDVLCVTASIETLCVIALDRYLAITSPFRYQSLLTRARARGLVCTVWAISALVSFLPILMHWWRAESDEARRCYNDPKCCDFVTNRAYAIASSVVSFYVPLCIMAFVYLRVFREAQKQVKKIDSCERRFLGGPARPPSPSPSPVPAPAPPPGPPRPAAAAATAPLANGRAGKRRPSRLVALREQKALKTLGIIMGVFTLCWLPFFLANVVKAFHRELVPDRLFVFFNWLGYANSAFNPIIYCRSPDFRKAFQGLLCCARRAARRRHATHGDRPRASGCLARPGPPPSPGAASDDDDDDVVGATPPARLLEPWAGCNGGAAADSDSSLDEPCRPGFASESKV
Cannabinoid receptor 1, sequence (P21554 whole entry): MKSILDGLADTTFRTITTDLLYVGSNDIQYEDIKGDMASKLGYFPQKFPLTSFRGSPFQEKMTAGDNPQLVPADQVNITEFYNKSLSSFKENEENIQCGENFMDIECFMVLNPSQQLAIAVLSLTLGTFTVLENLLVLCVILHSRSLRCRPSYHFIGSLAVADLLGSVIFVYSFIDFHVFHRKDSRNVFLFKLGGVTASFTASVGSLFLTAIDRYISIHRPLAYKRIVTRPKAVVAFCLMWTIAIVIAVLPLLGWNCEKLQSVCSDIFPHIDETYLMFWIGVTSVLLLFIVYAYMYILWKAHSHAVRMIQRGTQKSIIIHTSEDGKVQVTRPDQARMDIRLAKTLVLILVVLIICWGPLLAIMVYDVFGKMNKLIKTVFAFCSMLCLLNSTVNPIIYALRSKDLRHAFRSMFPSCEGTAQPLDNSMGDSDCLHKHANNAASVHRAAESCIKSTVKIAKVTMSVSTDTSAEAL

`COc1cc(C(=O)NS(=O)(=O)c2ccccc2C)ccc1Cc1cn(C)c2ccc(NC(=O)OC3CCCC3)cc12` [ZAFIRLUKAST] was tested. Which AC50 (Cannabinoid receptor 1) did it give?
Its AC50 is 30 µM.

What about the AC50 (Progesterone receptor) of the same compound?
The AC50 was 11.2 µM.

And the AC50 [1]?
The AC50 was > 30 µM.

And the AC50 (Mu-type opioid receptor)?
Its AC50 is > 30 µM.

What about the AC50 [2] of the same compound?
Its AC50 is > 10 µM.

And the AC50 [3]?
Its AC50 is > 10 µM.

And the AC50 (Motilin receptor)?
Its AC50 is > 10 µM.

And the AC50 [4]?
The AC50 was > 10 µM.

What about the AC50 (Adenosine receptor A3) of the same compound?
The AC50 was 11.4 µM.

And the AC50 (Melanocortin receptor 3)?
The AC50 was > 10 µM.

What about the AC50 (B2 bradykinin receptor) of the same compound?
The AC50 was > 10 µM.
